Values of other authors as cited in US20230149268A1, “MULTI-PHASE COSMETIC COMPOSITION COMPRISING AT LEAST TWO IMMISCIBLE OILY PHASES” (CHANEL PARFUMS BEAUTE, priority 2020, published 2023).

Settings: Table 1, known values, fatty acids

For `CCCCCCCCCCCC(=O)O` [Lauric acid C12:0, Lauric acid], the δd is given as 16.3, the δh is given as 7.5 and the δp is given as 4.

In the case of `CCCCCCCCCCCCCCCCCCCC(=O)O` [Arachidic acid C20:0, Arachidic acid], the δd is given as 16.1, the δh is given as 4.7 and the δp is given as 2.7.

In the case of `CCCCCCCCCCCCCCCCCCCCCCCC(=O)O` [Lignoceric acid C24:0, Lignoceric acid], the δd is given as 16.1, the δh is given as 3.9 and the δp is given as 2.4.

For `CCCCCCCCCC(=O)O` [Capric acid C10:0, Capric acid], the δd is listed as 16.3, the δh is listed as 8.6 and the δp is listed as 4.2.

In the case of `CCCCCCCC/C=C\CCCCCCCC(=O)O` [Oleic acid C18:1, Oleic acid], the δd is given as 16.4, the δh is given as 5.5 and the δp is given as 3.

In the case of `CCCCCCCCCCCCCCCCCCCCCC(=O)O` [Behenic acid C22:0, Behenic acid], the δd is given as 16.2, the δh is given as 4.3 and the δp is given as 2.3.

For `CCCCC/C=C\C/C=C\CCCCCCCC(=O)O` [Linoleic acid C18:2, Linoleic acid], the δd is listed as 16.7, the δh is listed as 6.1 and the δp is listed as 3.1.

In the case of `CCCCCCCCCC/C=C\CCCCCCCC(=O)O` [Gadoleic acid C20:1, Gadoleic acid], the δd is listed as 16.4, the δh is listed as 5.1 and the δp is listed as 2.9.

In the case of `CCCCCC[C@@H](O)C/C=C\CCCCCCCC(=O)O` [Ricinoleic acid], the δd is listed as 16.5, the δh is listed as 8.2 and the δp is listed as 4.4.

In the case of `CCCCCCCCCCCCCCCC(=O)O` [Palmitic acid C16:0, Palmitic acid], the δd is given as 16.2, the δh is given as 5.8 and the δp is given as 3.3.

In the case of `CCCCCC/C=C\CCCCCCCC(=O)O` [Palmitoleic acid C16:1, Palmitoleic acid], the δd is given as 16.5, the δh is given as 6.3 and the δp is given as 3.4.

In the case of `CCCCCCCCCCCCCCCCCC(=O)O` [Stearic acid C18:0, Stearic acid], the δd is listed as 16.2, the δh is listed as 5.2 and the δp is listed as 2.8.

In the case of `CCCCCCCC/C=C\CCCCCCCCCCCC(=O)O` [Erucic acid C22:1, Erucic acid], the δd is given as 16.3, the δh is given as 4.5 and the δp is given as 2.6.

In the case of `CCCCCCCCCCCCCCCCC(=O)O` [Margaric acid C17:0, Margaric acid], the δd is listed as 16.2, the δh is listed as 5.4 and the δp is listed as 2.8.

In the case of `CCCCCCCC(=O)O` [Caprylic acid C8:0, Caprylic acid], the δd is listed as 16.3, the δh is listed as 10.1 and the δp is listed as 5.2.

In the case of `CCCCCCCCCCCCCC(=O)O` [Myristic acid C14:0, Myristic acid], the δd is given as 16.3, the δh is given as 6.6 and the δp is given as 3.3.
